Results published in patent publication US10993983B2, “Cyclic peptide epitopes and small-molecule mimics for inducing autophagy” (TRUSTEES OF TUFTS COLLEGE, priority 2016, dated 2021).

How the values were obtained:
Assay type in all cases: cell-based
p62 = p62 degradation assay (p62/actin immunoblot); parameters: key: −: activity not reported; 0: decreased vs. WT; +: similar to WT; ++: modest increase vs. WT; +++: significant increase vs. WT; settings: first symbol; for Activity (μM) 10, p62/actin assay activity: 10 μM; for Activity (μM) 30, p62/actin assay activity: 30 μM; for Activity (μM) 50, p62/actin assay activity: 50 μM; for Activity (μM) 100, p62/actin assay activity: 100 μM; for Activity (μM) 30, starred cell, p62/actin assay activity: Table 8, *Data taken at 20 instead of 30 μM
LC3 = LC3 marker assay (LC3-I to LC3-II conversion immunoblot); parameters: key: −: activity not reported; 0: decreased vs. WT; +: similar to WT; ++: modest increase vs. WT; +++: significant increase vs. WT; settings: second symbol; for Activity (μM) 10, LC3 assay activity: 10 μM; for Activity (μM) 30, LC3 assay activity: 30 μM; for Activity (μM) 50, LC3 assay activity: 50 μM; for Activity (μM) 100, LC3 assay activity: 100 μM; for Activity (μM) 30, starred cell, LC3 assay activity: Table 8, *Data taken at 20 instead of 30 μM
HeLa cells = experiment: Autophagy induction judged by p62 and LC3 immunoblots together; parameters: key to Activity compared to wild-type WT / Activity (μM) 10, single symbol / Activity (μM) 30, single symbol / Activity (μM) 50, single symbol / Activity (μM) 100, single symbol: −: activity not reported; 0: decreased vs. WT; +: similar to WT; ++: modest increase vs. WT; +++: significant increase vs. WT; settings: for Activity (μM) 10, single symbol: 10 μM; for Activity (μM) 30, single symbol: 30 μM; for Activity (μM) 50, single symbol: 50 μM; for Activity (μM) 100, single symbol: 100 μM
Procedure: This 10-mer sequence was substituted with various thiol-containing amino acids at various positions, and then cross-linked with various linkers as described above (FIG. 5, a and FIG. 6).
Cells were treated with peptide in OPTI-MEM (Thermo Scientific) acidified with 0.15% (v/v) 6N HCl for 3 hour. Cells were rinsed with Dulbecco's phosphate buffered saline (PBS) and lysed in lysis buffer (20 mM HEPES, 150 mM NaCl, 1 mM EDTA, 1% Triton X-100, protease inhibitor cocktail (Roche) on ice for 1 hour. Cell lysates were centrifuged at 16,000 g for 10 min at 4° C. and analyzed by SDS-PAGE and transferred to PVDF membranes. The membranes were blocked 5% non-fat dry milk (NFDM) in PBST (PBS+0.05% Tween-20) for 1 hour, then incubated overnight at 4° C. with primary antibody in 5% NFDM in PBST. The blots were washed with PBST and incubated with HRP-conjugated secondary antibodies diluted in 5% NFDM in PBST for 1 hour at room temperature. Membranes were washed with PBST and visualized with SuperSignal West Pico Chemiluminescent Substrate (Thermo Scientific). Semi-quantitative results were obtained by noting the lowest concentration at which both p62 degradation and LC3-I to LC3-II conversion were observed.
(SEQ ID NO: 16)-Sequence. […] The N-terminus was capped with an acetyl group while the C terminus was capped with a —C(O)—NH2 group. The activity reported is a summation of results from both the p62 degradation assay and the LC3 marker assay.

[1] = 5 μM, Table 8, control compound T25
[2] = Table 4, control inactive Tat-Beclin mutant
[3] = Table 4, starred rows (asterisk not explained)

Sequence	Activity (μM) 10, p62/actin assay activity (p62; Table 5, control compound T25)	Activity (μM) 10, p62/actin assay activity (p62; Table 6, control DMSO)	Activity (μM) 30, p62/actin assay activity (p62; Table 5, control compound T25)	Activity (μM) 30, p62/actin assay activity (p62; Table 6, control DMSO)	Activity (μM) 50, p62/actin assay activity (p62; Table 5, control compound T25)	Activity (μM) 50, p62/actin assay activity (p62; Table 6, control DMSO)	Activity (μM) 100, p62/actin assay activity (p62; Table 5, control compound T25)	Activity (μM) 100, p62/actin assay activity (p62; Table 6, control DMSO)	Activity (μM) 10, LC3 assay activity (LC3; Table 5, control compound T25)	Activity (μM) 10, LC3 assay activity (LC3; Table 6, control DMSO)	Activity (μM) 30, LC3 assay activity (LC3; Table 5, control compound T25)	Activity (μM) 30, LC3 assay activity (LC3; Table 6, control DMSO)	Activity (μM) 50, LC3 assay activity (LC3; Table 5, control compound T25)	Activity (μM) 50, LC3 assay activity (LC3; Table 6, control DMSO)	Activity (μM) 100, LC3 assay activity (LC3; Table 5, control compound T25)	Activity (μM) 100, LC3 assay activity (LC3; Table 6, control DMSO)	Activity (μM) 10, single symbol (HeLa cells; Table 5)	Activity (μM) 30, single symbol (HeLa cells; Table 5)	Activity (μM) 50, single symbol (HeLa cells; Table 5)	Activity (μM) 100, single symbol (HeLa cells; Table 5)	further results
VCNATCHIWH [Compound 16]	0	++	0	+++	0	+++	0	+++	++	+	++	+	++	+	++	+	0	+	++	++	–
VCNATCHIWH [Compound 17]	+++	+	++	+++	++	+++	++	+++	0	++	0	++	+	++	0	+	0	++	+++	+++	Activity (μM) 10, p62/actin assay activity (p62; Table 8, control compound T25): ++; Activity (μM) 30, starred cell, p62/actin assay activity (p62): +++/+++*; Activity (μM) 10, LC3 assay activity (LC3; Table 8, control compound T25): +++; Activity (μM) 30, starred cell, LC3 assay activity (LC3): +++/+++*
VFNATFEIWH [Compound T25]	–	–	–	–	–	–	–	–	–	–	–	–	–	–	–	–	–	–	–	–	Activity (μM) 5, p62/actin assay activity (p62; [1]): ++; Activity (μM) 10, p62/actin assay activity (p62; Table 8, control compound T25): ++; Activity (μM) 30, starred cell, p62/actin assay activity (p62): +++/+++*; Activity (μM) 5, LC3 assay activity (LC3; [1]): +++; Activity (μM) 10, LC3 assay activity (LC3; Table 8, control compound T25): +++; Activity (μM) 30, starred cell, LC3 assay activity (LC3): +++/+++*; Activity (μM) 30, single symbol (HeLa cells; Table 7, one symbol only): +++; Activity compared to wild-type WT (HeLa cells; Tat-linked linear peptides, summation of p62 degradation assay and LC3 marker assay): ++
YGRKKRRQRRR (Human immunodeficiency virus) [Tat, HIV-1 Tat protein transduction domain, reference compound]	–	–	–	–	–	–	–	–	–	–	–	–	–	–	–	–	–	–	–	–	Activity (μM) 10, p62/actin assay activity (p62; [2]): 0/0; Activity (μM) 30, p62/actin assay activity (p62; [2]): 0/0; Activity (μM) 50, p62/actin assay activity (p62; [2]): 0; Activity (μM) 100, p62/actin assay activity (p62; [2]): 0/0; Activity (μM) 10, LC3 assay activity (LC3; [2]): 0/0; Activity (μM) 30, LC3 assay activity (LC3; [2]): 0/0; Activity (μM) 50, LC3 assay activity (LC3; [2]): +; Activity (μM) 100, LC3 assay activity (LC3; [2]): 0/0; Activity (μM) 10, single symbol (HeLa cells; [3]): 0; Activity (μM) 30, single symbol (HeLa cells; [3]): 0; Activity (μM) 50, single symbol (HeLa cells; [3]): 0; Activity (μM) 100, single symbol (HeLa cells; [3]): 0
